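Growth conditions: 96-well plates. Treatment: test compound, 48 hours, 5 concentrations. Analysis: linear interpolation between bracketing concentrations; unreached endpoints set to highest concentration. GI50 = concentration required for 50% inhibition of growth. TGI denotes the concentration required for complete inhibition of growth.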
Experiments:
Experiment in all cases: NCI-60 cell line screen, 48 h
[1] = system: 786-0 renal
[2] = system: A498 renal
[3] = system: A549 NSCLC
[4] = system: ACHN renal
[5] = system: BT-549 breast
[6] = system: CAKI-1 renal
[7] = system: DU-145 prostate
[8] = system: EKVX NSCLC
[9] = system: HCC-2998 colon
[10] = system: HCT-116 colon
[11] = system: HCT-15 colon
[12] = system: HOP-62 NSCLC
[13] = system: HOP-92 NSCLC
[14] = system: HS 578T breast
[15] = system: HT29 colon
[16] = system: K-562 leukemia
[17] = system: M14 melanoma
[18] = system: MALME-3M melanoma
[19] = system: MCF7 breast
[20] = system: MDA-MB-231 breast
[21] = system: MDA-MB-435
[22] = system: NCI-H226 lung
[23] = system: NCI-H23 lung
[24] = system: NCI-H460 lung
[25] = system: NCI-H522 lung
[26] = system: NCI/ADR-RES ovarian
[27] = system: OVCAR-3 ovarian
[28] = system: OVCAR-4 ovarian
[29] = system: OVCAR-5 ovarian
[30] = system: OVCAR-8 ovarian
[31] = system: SF-268 CNS
[32] = system: SF-295 CNS
[33] = system: SF-539 CNS
[34] = system: SK-MEL-2 melanoma
[35] = system: SK-MEL-28 melanoma
[36] = system: SK-MEL-5 melanoma
[37] = system: SK-OV-3 ovarian
[38] = system: SN12C renal
[39] = system: SNB-75 CNS
[40] = system: SR leukemia
[41] = system: SW-620 colon
[42] = system: T-47D breast
[43] = system: TK-10 renal
[44] = system: UACC-257 melanoma
[45] = system: UACC-62 melanoma
[46] = system: UO-31 renal

CCCCCCCCCCCCCCCCCCOc1ccccc1CC(=O)NCC[N+](C)(C)C
GI50 [1]: 3.57 µM | TGI [1]: 78.7 µM | GI50 [2]: 9.55 µM | TGI [2]: 49.8 µM | GI50 [3]: 4.91 µM | TGI [3]: 51.8 µM | GI50 [4]: 12.9 µM | TGI [4]: 49.2 µM | GI50 [5]: 3.25 µM | TGI [5]: > 100 µM | GI50 [6]: 4.39 µM | TGI [6]: 36.7 µM | GI50 [7]: 4.97 µM | TGI [7]: 39.2 µM | GI50 [8]: 18 µM | TGI [8]: 66 µM | GI50 [9]: 3.15 µM | TGI [9]: 21.9 µM | GI50 [10]: 7.58 µM | TGI [10]: > 100 µM | GI50 [11]: 17 µM | TGI [11]: 57.4 µM | GI50 [12]: 2.32 µM | TGI [12]: 6.9 µM | GI50 [13]: 1.92 µM | TGI [13]: 7.16 µM | GI50 [14]: 4.26 µM | TGI [14]: > 100 µM | GI50 [15]: 3.09 µM | TGI [15]: 26.7 µM | GI50 [16]: 3.2 µM | TGI [16]: > 100 µM | GI50 [17]: 3.14 µM | TGI [17]: > 100 µM | GI50 [18]: 14.8 µM | TGI [18]: 94 µM | GI50 [19]: 3.77 µM | TGI [19]: 34.9 µM | GI50 [20]: 4.27 µM | TGI [20]: 66.6 µM | GI50 [21]: 10.6 µM | TGI [21]: 55.1 µM | GI50 [22]: 4.4 µM | TGI [22]: 42.9 µM | GI50 [23]: 5.07 µM | TGI [23]: 35.4 µM | GI50 [24]: 3.47 µM | TGI [24]: 52.4 µM | GI50 [25]: 2.67 µM | TGI [25]: 8.24 µM | GI50 [26]: 22.6 µM | TGI [26]: 62.6 µM | GI50 [27]: 3.55 µM | TGI [27]: 50.5 µM | GI50 [28]: 3.11 µM | TGI [28]: 30 µM | GI50 [29]: 2.68 µM | TGI [29]: 12.8 µM | GI50 [30]: 5.79 µM | TGI [30]: 41.9 µM | GI50 [31]: 3.34 µM | TGI [31]: 39.9 µM | GI50 [32]: 5.09 µM | TGI [32]: 38.9 µM | GI50 [33]: 5.48 µM | TGI [33]: 37 µM | GI50 [34]: 12.7 µM | TGI [34]: 44.7 µM | GI50 [35]: 10.4 µM | TGI [35]: 45.4 µM | GI50 [36]: 6.59 µM | TGI [36]: 45.8 µM | GI50 [37]: 15.4 µM | TGI [37]: 35.7 µM | GI50 [38]: 3.67 µM | TGI [38]: 37.9 µM | GI50 [39]: 1.98 µM | TGI [39]: 8.9 µM | GI50 [40]: 2.71 µM | TGI [40]: > 100 µM | GI50 [41]: 5.8 µM | TGI [41]: 40.8 µM | GI50 [42]: 7.6 µM | TGI [42]: 58.9 µM | GI50 [43]: 2.27 µM | TGI [43]: 6.48 µM | GI50 [44]: 23.6 µM | TGI [44]: 51.6 µM | GI50 [45]: 6.55 µM | TGI [45]: 62.5 µM | GI50 [46]: 17.9 µM | TGI [46]: 80.4 µM

Source: PubChem BioAssay (NCI)
